System: 885512-296-R-J2-PDC complex spheroid viability
Assay: Anticancer human tumor 885512-296-R-J2-PDC patient-derived breast carcinoma cell line growth inhibition [GQUAD]
Conditions: for IC50: curve of first compound; for viability, T/C: stronger effect = lower value
Summary of the method: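 Multi-cell-type spheroids of tumor cells with HUVEC and mesenchymal stem cells, treated with drug combinations. Concentrations descend in half-log steps from near clinical Cmax, or from 10 microM where Cmax is unknown; viability read-out.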

[1] = second compound 0.0316 µM, first compound 0.0316 µM
[2] = second compound 0.0316 µM, first compound 0.1 µM
[3] = second compound 0.0316 µM, first compound 0.316 µM
[4] = second compound 0.0316 µM, first compound 1 µM
[5] = second compound 0.0316 µM, first compound 3.16 µM
[6] = second compound 0.0316 µM, first compound 10 µM
[7] = second compound 0.1 µM, first compound 0.0316 µM
[8] = second compound 0.1 µM, first compound 0.1 µM
[9] = second compound 0.1 µM, first compound 0.316 µM
[10] = second compound 0.1 µM, first compound 1 µM
[11] = second compound 0.1 µM, first compound 3.16 µM
[12] = second compound 0.1 µM, first compound 10 µM
[13] = second compound 0.316 µM, first compound 0.0316 µM
[14] = second compound 0.316 µM, first compound 0.1 µM
[15] = second compound 0.316 µM, first compound 0.316 µM
[16] = second compound 0.316 µM, first compound 1 µM
[17] = second compound 0.316 µM, first compound 3.16 µM
[18] = second compound 0.316 µM, first compound 10 µM
[19] = second compound 1 µM, first compound 0.0316 µM
[20] = second compound 1 µM, first compound 0.1 µM
[21] = second compound 1 µM, first compound 0.316 µM
[22] = second compound 1 µM, first compound 1 µM
[23] = second compound 1 µM, first compound 3.16 µM
[24] = second compound 1 µM, first compound 10 µM
[25] = second compound 3.16 µM, first compound 0.0316 µM
[26] = second compound 3.16 µM, first compound 0.1 µM
[27] = second compound 3.16 µM, first compound 0.316 µM
[28] = second compound 3.16 µM, first compound 1 µM
[29] = second compound 3.16 µM, first compound 3.16 µM
[30] = second compound 3.16 µM, first compound 10 µM
[31] = second compound 10 µM, first compound 0.0316 µM
[32] = second compound 10 µM, first compound 0.1 µM
[33] = second compound 10 µM, first compound 0.316 µM
[34] = second compound 10 µM, first compound 1 µM
[35] = second compound 10 µM, first compound 3.16 µM
[36] = second compound 10 µM, first compound 10 µM
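Further: spheroids exposed to the compounds for one week.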
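Wherever viability, T/C is given: percent of tumor spheroid viability relative to DMSO vehicle control wells.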

CCCS(=O)(=O)Nc1ccc(F)c(C(=O)c2c[nH]c3ncc(-c4ccc(Cl)cc4)cc23)c1F + Cc1cnc(CNC(=O)c2c(=O)c3ccc(N4CCCN(C)CC4)nc3n3c2sc2ccccc23)cn1
IC50 (second compound 0.0316 µM): > 10000 nM
IC50 (second compound 0.1 µM): > 10000 nM
IC50 (second compound 0.316 µM): < 31.6 nM
IC50 (second compound 1 µM): < 31.6 nM
IC50 (second compound 3.16 µM): < 31.6 nM
IC50 (second compound 10 µM): < 31.6 nM
viability, T/C [1]: 97.5%
viability, T/C [2]: 93.9%
viability, T/C [3]: 97.1%
viability, T/C [4]: 91.7%
viability, T/C [5]: 102%
viability, T/C [6]: 58.8%
viability, T/C [7]: 65.8%
viability, T/C [8]: 61%
viability, T/C [9]: 64.3%
viability, T/C [10]: 67.6%
viability, T/C [11]: 71.2%
viability, T/C [12]: 41.5%
viability, T/C [13]: 30.3%
viability, T/C [14]: 24.9%
viability, T/C [15]: 22.9%
viability, T/C [16]: 34.2%
viability, T/C [17]: 45.6%
viability, T/C [18]: 25.4%
viability, T/C [19]: 19.2%
viability, T/C [20]: 26%
viability, T/C [21]: 26.4%
viability, T/C [22]: 33.6%
viability, T/C [23]: 36%
viability, T/C [24]: 22.7%
viability, T/C [25]: 20.9%
viability, T/C [26]: 29.3%
viability, T/C [27]: 26.5%
viability, T/C [28]: 25.8%
viability, T/C [29]: 24.5%
viability, T/C [30]: 0.29%
viability, T/C [31]: 0.15%
viability, T/C [32]: 0.16%
viability, T/C [33]: 0.18%
viability, T/C [34]: 0.17%
viability, T/C [35]: 0.15%
viability, T/C [36]: 0.18%

COc1ccc([C@@H](O)c2cc(-c3ncnc4cc(N5CCOCC5)ccc34)c(F)cc2Cl)nn1 + Cc1cnc(CNC(=O)c2c(=O)c3ccc(N4CCCN(C)CC4)nc3n3c2sc2ccccc23)cn1
IC50 (second compound 0.0316 µM): 274 nM
IC50 (second compound 0.1 µM): 125 nM
IC50 (second compound 0.316 µM): < 31.6 nM
IC50 (second compound 1 µM): < 31.6 nM
IC50 (second compound 3.16 µM): < 31.6 nM
IC50 (second compound 10 µM): < 31.6 nM
viability, T/C [1]: 93.6%
viability, T/C [2]: 73.1%
viability, T/C [3]: 50%
viability, T/C [4]: 25.6%
viability, T/C [5]: 32%
viability, T/C [6]: 29.4%
viability, T/C [7]: 67.1%
viability, T/C [8]: 54.7%
viability, T/C [9]: 28.2%
viability, T/C [10]: 30%
viability, T/C [11]: 33.1%
viability, T/C [12]: 29.2%
viability, T/C [13]: 26.1%
viability, T/C [14]: 21.2%
viability, T/C [15]: 24.2%
viability, T/C [16]: 24.6%
viability, T/C [17]: 24.8%
viability, T/C [18]: 23.8%
viability, T/C [19]: 21.8%
viability, T/C [20]: 26.6%
viability, T/C [21]: 21.9%
viability, T/C [22]: 24.3%
viability, T/C [23]: 29.9%
viability, T/C [24]: 18.9%
viability, T/C [25]: 24.8%
viability, T/C [26]: 25.4%
viability, T/C [27]: 25.1%
viability, T/C [28]: 22.7%
viability, T/C [29]: 23.2%
viability, T/C [30]: 17.2%
viability, T/C [31]: 0.11%
viability, T/C [32]: 0.2%
viability, T/C [33]: 0.17%
viability, T/C [34]: 0.15%
viability, T/C [35]: 0.18%
viability, T/C [36]: 0.19%

COc1ncnc(C2CC2)c1-c1ncc2cnn(Cc3ccc(-c4nc(C(F)(F)F)cn4C(C)C)cc3)c2n1 + Cc1[nH]c2ccc(F)cc2c1-c1nc2c3cccnc3c3ncccc3c2[nH]1
IC50 (second compound 0.0316 µM): 948 nM
IC50 (second compound 0.1 µM): 660 nM
IC50 (second compound 0.316 µM): 564 nM
IC50 (second compound 1 µM): 93.9 nM
IC50 (second compound 3.16 µM): < 31.6 nM
IC50 (second compound 10 µM): < 31.6 nM
viability, T/C [1]: 89.9%
viability, T/C [2]: 82.6%
viability, T/C [3]: 64.5%
viability, T/C [4]: 52.1%
viability, T/C [5]: 25.1%
viability, T/C [6]: 2.97%
viability, T/C [7]: 104%
viability, T/C [8]: 83.5%
viability, T/C [9]: 66.7%
viability, T/C [10]: 38.7%
viability, T/C [11]: 23.7%
viability, T/C [12]: 2.95%
viability, T/C [13]: 88.5%
viability, T/C [14]: 78.3%
viability, T/C [15]: 60.5%
viability, T/C [16]: 34.5%
viability, T/C [17]: 27.8%
viability, T/C [18]: 2.76%
viability, T/C [19]: 59.2%
viability, T/C [20]: 49.4%
viability, T/C [21]: 37.4%
viability, T/C [22]: 28.5%
viability, T/C [23]: 25.1%
viability, T/C [24]: 2.31%
viability, T/C [25]: 5.23%
viability, T/C [26]: 4.49%
viability, T/C [27]: 2.87%
viability, T/C [28]: 4.14%
viability, T/C [29]: 3.49%
viability, T/C [30]: 0.54%
viability, T/C [31]: 1.44%
viability, T/C [32]: 1.29%
viability, T/C [33]: 1.4%
viability, T/C [34]: 2.23%
viability, T/C [35]: 2.81%
viability, T/C [36]: 0.35%

CC(C)n1c(=O)n(C)c2cnc3cc(F)c(-c4ccc(OCCCN5CCCCC5)nc4)cc3c21 + Cc1[nH]c2ccc(F)cc2c1-c1nc2c3cccnc3c3ncccc3c2[nH]1
IC50 (second compound 0.0316 µM): > 10000 nM
IC50 (second compound 0.1 µM): > 10000 nM
IC50 (second compound 0.316 µM): > 10000 nM
IC50 (second compound 1 µM): 4450 nM
IC50 (second compound 3.16 µM): < 31.6 nM
IC50 (second compound 10 µM): < 31.6 nM
viability, T/C [1]: 84.4%
viability, T/C [2]: 82.5%
viability, T/C [3]: 83.2%
viability, T/C [4]: 103%
viability, T/C [5]: 112%
viability, T/C [6]: 98.9%
viability, T/C [7]: 92.1%
viability, T/C [8]: 92.3%
viability, T/C [9]: 88%
viability, T/C [10]: 104%
viability, T/C [11]: 104%
viability, T/C [12]: 122%
viability, T/C [13]: 89.1%
viability, T/C [14]: 77.6%
viability, T/C [15]: 89.7%
viability, T/C [16]: 90%
viability, T/C [17]: 103%
viability, T/C [18]: 67.3%
viability, T/C [19]: 48.6%
viability, T/C [20]: 68.2%
viability, T/C [21]: 63.9%
viability, T/C [22]: 66%
viability, T/C [23]: 68.8%
viability, T/C [24]: 19%
viability, T/C [25]: 7.3%
viability, T/C [26]: 8.5%
viability, T/C [27]: 13.1%
viability, T/C [28]: 10%
viability, T/C [29]: 10.8%
viability, T/C [30]: 1.66%
viability, T/C [31]: 1.24%
viability, T/C [32]: 4.55%
viability, T/C [33]: 2.57%
viability, T/C [34]: 2.18%
viability, T/C [35]: 2.19%
viability, T/C [36]: 1.31%
